Results from patent US20090074831A1, “LOCAL […] […] OF mTOR INHIBITORS IN COMBINATION WITH PEROXISOME PROLIFERATORS-ACTIVATED RECEPTOR STIMULATORS” (priority 2007, published 2009).
Blank lines part the entries; values can stand above or below the compound they belong to.

Legend:
[1] = tested on: human smooth muscle cells; test: Inhibition of human vascular cell proliferation with cladribine, PDGF-stimulated smooth muscle cells; type: cell-based
Procedure: To assess the ability of cladribine to prevent cell proliferation, human smooth muscle or endothelial cells (Clonetics, Walkersville, Md.) were seeded at a density of 2000 cells/cm^2 (approximately 3600 cells/well) into each well of 12-well plates and cultured with 1.5 ml of growth medium containing five percent fetal calf serum (FCS). After twenty-four hours, the growth medium was changed and fresh medium containing 10 ng/ml platelet-derived growth factor AB (PDGF AB; LIFE Technologies), as well as various concentrations of cladribine (0.001-10,000 nM) were added with triplicate wells. Medium was replaced with fresh cladribine-containing medium after three days. On day six, cells were detached by trypsinization to yield a cell suspension, lightly centrifuged to pellet and then counted manually using a Neubauer hemocytometer system. Cell viability was assessed by trypan blue exclusion.

[2] = tested on: human coronary artery smooth muscle cells; test: Anti-proliferative activity in non-synchronized cultured human coronary artery smooth muscle cells stimulated with two percent fetal bovine serum; type: cell-based
From the text: The multiple curves represent various concentrations of mycophenolic acid ranging from zero to one thousand nanomolar concentrations.
FIG. 58 illustrates, in graphical format, the anti-proliferative activity of cladribine in non-synchronized cultured human coronary artery smooth muscle cells stimulated with two percent fetal bovine serum.
The multiple curves represent various concentrations of cladribine ranging from zero to nine hundred nanomolar concentrations.

[3] = in vivo release kinetics from rapamycin / cladribine EVA/BMA coating, porcine pharmacokinetics studies; parameters: species or system Yorkshire pigs; settings: EVA/BMA basecoat with 200 microgram BMA topcoat, Bx Velocity stents
From the text: The basecoat is applied to Bx Velocity® stents and implanted into Yorkshire pigs.
The basecoat is applied to BxVelocity® stents and implanted into Yorkshire pigs.

[4] = tested on: human coronary artery smooth muscle cells; test: antiproliferative effects of PX867 on cultured human coronary artery smooth muscle cells; type: cell-based; settings: PX867 alone, concentration of about 10^−6 (unit not given)
From the text: A PI3 kinase inhibitor can affect restinosis when administered by local or systemic delivery alone or in combination with sirolimus. FIGS. 87 and 88 illustrate the antiproliferative effects of PX867 on cultured human coronary artery smooth muscle cells alone (FIG. 87) or in combination with sirolimus (FIG. 88). […] Curve 8702 illustrates the percent inhibition for various concentrations. In FIG. 88, the six curves 8802, 8804, 8806, 8808, 8810 and 8812 represent various concentrations of PX867 with various concentrations of sirolimus. […] More specifically, curve 8812 illustrates the percent inhibition for a 240 nM PX-867 concentration. […] This may be compared to curve 8804 which represents a 15 nM PX-867 concentration. As one can see, the percent inhibition increases as the concentration of sirolimus increases. Accordingly, a potent PI3 kinase inhibitor, such as PX-867, can improve the inhibition of coronary artery smooth muscle cell proliferation either as a stand alone treatment or via combination with another restenotic agent, such as sirolimus.

[5] = tested on: human coronary artery smooth muscle cells; test: Anti-proliferative activity in synchronized cultured human coronary artery smooth muscle cells stimulated with two percent fetal bovine serum; type: cell-based; settings: for effect on anti-proliferative rapamycin dose response curves: leftward and upward shift
From the text: (§1) The multiple curves represent various concentrations of topotecan ranging from zero to three hundred nanomolar concentrations.
(§2) The multiple curves represent various concentrations of etoposide ranging from zero to eight hundred nanomolar concentrations.
The multiple curves represent various concentrations of Panzem® ranging from zero to 100 micromolar concentrations.

[6] = tested on: human coronary artery smooth muscle cell; settings: concentrations up to 30,000.00 nanomolar (6.6 to 30,000.00 nanomolar tested)
From the text: In vitro cytotoxicity tests or assays may be utilized to determine if drugs, agents and/or compounds are potentially toxic and the level of toxicity. Essentially, in vitro cytotoxicity assays determine acute necrotic effects by a drug causing direct cellular damage. The idea behind these assays is that toxic chemicals affect basic functions of cells which are common to all cells. […] There are a number of different assays that may be utilized. In the present invention, the cytotoxicity assay utilized is based upon the measurement of cellular metabolic activity. A reduction in metabolic activity is an indication of cellular damage. Tests that can measure metabolic function measure cellular ATP levels or mitochondrial activity via MTS metabolism. FIG. 69 is a graphical representation of the results of an MTS assay of Panzem®.

[7] = in vitro release of sirolimus and cilostazol from dual drug coating; type: physicochemical; settings: single-layer sirolimus + cilostazol coating of FIG. 83
cell viability = cell viability assay; type: cell-based
From the text: as §1, §2

[8] = in vivo release kinetics from rapamycin / mycophenolic acid EVA/BMA coating, porcine pharmacokinetics studies; settings: EVA/BMA basecoat, 180 micrograms each drug, BMA topcoat 0, 100 or 200 micrograms
[9] = tested on: human coronary artery smooth muscle cell; test: in vitro cell culture study, coronary artery smooth muscle cell proliferation (trichostatin A); type: cell-based
From the text: FIG. 51 is a graph of the inhibition of coronary artery smooth muscle cells by trichostatin A in a cell culture study.

tumor cell lines = settings: Woo et al., J. Med Chem 2002; cited from earlier work

in vivo elution compared with rapamycin [3]: elutes more rapidly than rapamycin
SMILES: Nc1nc(Cl)nc2c1ncn2[C@H]1C[C@H](O)[C@@H](CO)O1 [Cladribine, 2-chlorodeoxyadenosine]
potency as inhibitor of smooth muscle cells relative to endothelial cells [1]: approximately twice
inhibition of human coronary artery smooth muscle cell proliferation ([2]; cladribine alone): completely inhibits human coronary artery smooth muscle cell proliferation
effect on anti-proliferative rapamycin dose response curves ([2]; cladribine zero to nine hundred nanomolar added to rapamycin, leftward and upward shift): does in fact potentiate the anti-proliferative activity of rapamycin

SMILES: COC[C@H]1OC(=O)/C(=C\N2CCCC2)C2=C(O)C(=O)C3=C([C@H](OC(C)=O)C[C@]4(C)C(=O)CC[C@@H]34)[C@]21C [PX867]
inhibition of coronary artery smooth muscle cell proliferation [4]: one hundred

SMILES: COc1cc2c(cc1O)CC[C@@H]1[C@@H]2CC[C@]2(C)[C@@H](O)CC[C@@H]12 [Panzem®, 2-methoxyestradiol]
anti-proliferative activity ([5]; Panzem alone): extremely effective inhibitor of human coronary artery smooth muscle cell proliferation in vitro
effect on percent inhibition by rapamycin ([5]; Panzem zero to 100 micromolar added to rapamycin): increases the percent of inhibition of rapamycin alone
cytotoxicity (MTS assay), cell survival [6]: do not reduce human coronary artery smooth muscle cell survival

SMILES: O=C1CCc2cc(OCCCCc3nnnn3C3CCCCC3)ccc2N1 [cilostazol, 6[4-(1-cyclohexyl-1H-tetrazol-5-yl)-butoxy]-3,4-dihydro-2-(1H)-quinolinone]
in vitro release [7]: ~35%

SMILES: COc1cc([C@@H]2c3cc4c(cc3[C@@H](O[C@@H]3O[C@@H]5CO[C@@H](C)O[C@H]5[C@H](O)[C@H]3O)[C@H]3COC(=O)[C@H]23)OCO4)cc(OC)c1O [etoposide]
effect on anti-proliferative rapamycin dose response curves ([5]; etoposide zero to eight hundred nanomolar added to rapamycin): potentiate the anti-proliferative activity of rapamycin
cytotoxicity (cell viability; concentrations up to ten micromolar): non-cytotoxic

SMILES: COc1c(C)c2c(c(O)c1C/C=C(\C)CCC(=O)O)C(=O)OC2 [mycophenolic acid]
effect on anti-proliferative rapamycin dose response curve ([2]; mycophenolic acid zero to one thousand nanomolar added to rapamycin, leftward and upward shift): potentiates the anti-proliferative activity of rapamycin
in vivo elution compared with rapamycin [8]: elutes more completely over a shorter duration than the rapamycin

SMILES: CC[C@@]1(O)C(=O)OCc2c1cc1n(c2=O)Cc2cc3c(CN(C)C)c(O)ccc3nc2-1 [topotecan]
effect on anti-proliferative rapamycin dose response curves ([5]; topotecan zero to three hundred nanomolar added to rapamycin): does in fact potentiate the anti-proliferative activity of rapamycin
cytotoxicity (cell viability; concentrations up to one micromolar): non-cytotoxic

SMILES: CC(/C=C/C(=O)NO)=C\[C@@H](C)C(=O)c1ccc(N(C)C)cc1 [trichostatin A]
inhibition of human coronary artery smooth muscle cell proliferation [9]: completely inhibit human coronary artery smooth muscle cell proliferation
IC50 ([9]; read-out: anti-proliferative IC50): ~6 nM
anti-proliferative IC50's (tumor cell lines): low nM range
